Legend:
Ross 308 broilers [1] = experiment: Colon length and colon mucosa aspect in DSS-treated broiler chickens; assay type: in vivo; conditions: DSS in drinking water, control diet
From the text: (§1) Material and Methods: • Experimental animals: Day-of-hatch male Ross 308 broilers were obtained from a local hatchery, placed in floor pens until 6 days of age, and provided heat to maintain an age-appropriate temperature. Chicks were provided ad libitum access to water and the balanced experimental diets meeting the poultry nutrition requirements recommended for Ross 308 broilers during the starter period from 1 to 16 days of age. • Experimental diets: A basal starter diet (CON) in the form of short pellets was formulated based on wheat, corn, and soybean meal (Table 14). The other experimental diets were formulated to contain 5% microalgae Aurantiochytrium mangrovei (MAG-5) or 2% curcumin (CUM-2) by replacing part of the cereal, protein or oil content. […]
(§2) • Dextran Sulfate Sodium (DSS) administration: DSS was used to increase intestinal permeability in broilers, by inducing epithelium damage. […] Fluorescence levels of diluted plasma (1:4 in saline solution 0.9% NaCl) were measured at an excitation wavelength of 485 nm and emission wavelength of 528 nm (BIOTEK synergie H1), and FITC-dextran concentration per mL of plasma was calculated based on a standard curve. • At the time of euthanisa, the colon was collected for morphometry. […] The colon (from the ileocecal junction to the cloaca) was then excised and its length was measured.

Ross 308 broilers [2] = experiment: Gut permeability: FITC-dextran in plasma of DSS-treated broiler chickens; assay type: in vivo; conditions: DSS administration, control diet; blood 1 h after oral gavage
From the text: as §1, §2

**Q.** What does the source list for Dextran Sulfate Sodium [DSS]?
**A.** length of the colon (Ross 308 broilers [1]; 16-day old chickens, compared with group without DSS): significantly increased; visual observation of the colon mucosa (Ross 308 broilers [1]; compared with DSS- control group): thinner, translucent, and more fragile; flow of FITC-dextran through the gut barrier (Ross 308 broilers [2]): significantly increased

From patent US20220095648A1, “USE OF A THRAUSTOCHYTRID BIOMASS FOR MAINTAINING GUT BARRIER FUNCTION” (priority 2019, published 2022)
